The target of one assay is T1, BCR-ABL protein (Homo sapiens, UniProt P00519+P11274).
T1 construct: examined for their activity to degrade BCR-ABL in K562 cells for 6 h; BCR (fusion partner, P11274, N-terminal part); endogenous in cells; host or cells: K562
Put plainly: Protein knockdown by western blot in K562 cells. The format is cell-based. The note with it: 6 h, 1-300 nM. The procedure: (§1) Cells were collected and lysed in a lysis buffer (0.5% Triton X-100, 0.01 M Tris-HCl (pH 7.5), 0.15 M NaCl, Complete Mini protease inhibitor cocktail (Roche Applied Science, Indianapolis, IL, USA) and PhosStop phosphatase inhibitor cocktail (Roche Applied Science)). Protein concentrations were measured by the BCA method (Thermo Fisher Scientific) and an equal amount of protein lysate was separated by SDS-PAGE, transferred to polyvinylidene difluoride membranes (Merck Millipore) and analyzed by western blot using an appropriate antibody. The immunoreactive proteins were visualized using Clarity Western ECL substrate (Bio-Rad, Hercules, CA, USA) and their light emission was quantified with a LAS-3000 lumino-image analyzer (Fuji, Tokyo, Japan).
(In general: Immunoblotting shows a protein as a band on a membrane.)

Assay [1] deals with caspase 3 activation and PARP cleavage. Description: Caspase activation and PARP cleavage after drug removal in K562 cells. The class given is cell-based, Human. The procedure:
as §1, with “Japan). The following antibodies were used: anti-cAbl rabbit polyclonal antibody (pAb) (#2862), anti-XIAP rabbit pAb (#2042), anti-phospho-cAbl rabbit pAb (#3009), anti-STAT5 rabbit pAb (#9363), anti-phospho-STAT5 rabbit pAb (#9359), anti-CrkL mouse monoclonal antibody (mAb) (#3182) and anti-phospho-CrkL rabbit pAb (#3181), anti-PARP rabbit pAb (#9532), and anti-cleaved Caspase 3 rabbit pAb (#9664) (Cell Signaling Technology, Danvers, MA, USA); anti-β-tubulin (ab6046) rabbit pAb (Abcam, Cambridge, UK) and anti-GAPDH rabbit pAb (sc-25778 HRP) (Santa Cruz, Dallas, TX, USA); anti-cIAP1 goat pAb (AF8181) (R&D systems).” for “Japan).”
(§2) Cells were seeded at a concentration of 2 × 10^6 cells per 10-cm tissue culture dish and treated with the indicated compounds for the indicated times. Then, the cells were washed three times to remove the compounds, and incubated in drug-free medium for the indicated times.

Assay [2] relates to K562 cells. Description: WST cell growth inhibition, K562. The class given is cell-based, Human. The note with it: 48 h. The procedure: (§3) Human CML (K562 and KU812 cells), acute T-lymphoblast leukemia (MOLT-4 cell), and T cell leukemia (Jurkat cell) were cultured in Roswell Park Memorial Institute-1640 medium (Sigma-Aldrich, St. Louis, MO, USA) containing 10% fetal bovine serum (Thermo Fisher Scientific, Waltham, MA, USA) and 50 μg/ml kanamycin (Sigma-Aldrich). KU812 cells were obtained from Japanese Collection of Research Bioresources (JCRB, Osaka, Japan) Cell Bank (JCRB0104)[58].
(§4) Cell viability was determined using water-soluble tetrazolium WST-8 (4-[3-(2-methoxy-4-nitrophenyl)-2-(4-nitrophenyl)-2H-5-tetrazolio]-1,3-benzene disulfonate) for the spectrophotometric assay and conducted according to the manufacturer’s instructions (Dojindo, Tokyo, Japan). Cells were seeded at a concentration of 5 × 10^3 cells per well in a 96-well culture plate, and treated with the indicated compounds for 48 h. The WST-8 reagent was added, and the cells were incubated for 0.5 h at 37 °C in a humidified atmosphere of 5% CO2. The absorbance at 450 nm of the medium was measured using the EnVision Multilabel Plate Reader.

Assay [3] deals with phosphorylation of BCR-ABL, STAT5 and CrkL. Description: Downstream kinase signaling (phosphorylation) by western blot in K562 cells. The format is cell-based, Human. The procedure:
as §1, with “Japan). The following antibodies were used: anti-cAbl rabbit polyclonal antibody (pAb) (#2862), anti-XIAP rabbit pAb (#2042), anti-phospho-cAbl rabbit pAb (#3009), anti-STAT5 rabbit pAb (#9363), anti-phospho-STAT5 rabbit pAb (#9359), anti-CrkL mouse monoclonal antibody (mAb) (#3182) and anti-phospho-CrkL rabbit pAb (#3181), anti-PARP rabbit pAb (#9532), and anti-cleaved Caspase 3 rabbit pAb (#9664) (Cell Signaling Technology, Danvers, MA, USA); anti-β-tubulin (ab6046) rabbit pAb (Abcam, Cambridge, UK) and anti-GAPDH rabbit pAb (sc-25778 HRP) (Santa Cruz, Dallas, TX, USA); anti-cIAP1 goat pAb (AF8181) (R&D systems).” for “Japan).”
as §2

Assay [4] concerns K562 cells. Put plainly: Washout experiment, cell counting of K562 cells. The format is cell-based, Human. The note with it: 25 or 50 times IC50 for 12 h, washed, drug-free medium for 6 d. The procedure:
as §2

A further assay has as its system KU812 cells. Put plainly: WST cell growth inhibition, KU812. The format is cell-based. The note with it: Homo sapiens, 48 h, WST assay, means ± SD (n = 3). The procedure:
as §3, §4

In assay [5] the target is T2, recombinant His-tagged human cIAP1 (BIR3, Leu250-Gly350) (human, UniProt Q13490 250-350).
T2 construct: cIAP1, human, BIR3 domain, residues Leu250-Gly350; also called His-IAP proteins; source: E. coli, purified (Ni-NTA column, gel filtration chromatography)
T2 sequence (Q13490 250-350): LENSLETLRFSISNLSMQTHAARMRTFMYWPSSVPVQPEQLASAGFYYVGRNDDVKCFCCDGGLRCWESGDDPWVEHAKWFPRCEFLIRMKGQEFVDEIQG
Description: AlphaScreen or HTRF; TR-FRET competition assay: 0.6 nM His-IAP BIR3 held by biotinylated anti-His antibody and terbium-streptavidin, FITC-Smac probe (27 nM for XIAP, 12 nM for cIAP1, 19 nM for cIAP2), small-molecule test compounds as competitors; 50 mM HEPES pH 7.2-7.5, 10 mM MgCl2, 1 mM EGTA, 0.1 mM DTT, 0.01% Brij 35; room temperature. Conditions: both partners purified.

Assay [6] addresses T3, recombinant His-tagged human XIAP (BIR3, Asn252-Thr356) (human, UniProt P98170 252-356).
T3 construct: XIAP, human, BIR3 domain, residues Asn252-Thr356; also called His-IAP proteins; source: bought: R&D Systems (895-XB-050)
The description is as above. Conditions: both partners purified.

Assay [7] deals with T4, recombinant His-tagged human cIAP2 (BIR3, Gln238-Ser349) (human, UniProt Q13489 238-349).
T4 construct: cIAP2, human, BIR3 domain, residues Gln238-Ser349; also called His-IAP proteins; source: E. coli, purified (Ni-NTA column, gel filtration chromatography)
T4 sequence (Q13489 238-349): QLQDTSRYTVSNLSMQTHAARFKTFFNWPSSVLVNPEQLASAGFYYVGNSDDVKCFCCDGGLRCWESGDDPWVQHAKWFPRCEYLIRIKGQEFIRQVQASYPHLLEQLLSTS
Described as above. Conditions: both partners purified.

Residues, ends and D or L forms follow the SMILES beside them. No end group written: not given here. *: point of attachment. 5FAM = O=C1OC2(c3ccc(O)cc3Oc3cc(O)ccc32)c2ccc(C(=O)*)cc21; Cbz = O=C(OCc1ccccc1)*; CH2F = FC*

The term IC50 denotes the concentration at which inhibition is half-maximal. The low end stands for inhibition by little substance, the high end for a need for much substance.

T1 sequence (P11274+P00519 fused): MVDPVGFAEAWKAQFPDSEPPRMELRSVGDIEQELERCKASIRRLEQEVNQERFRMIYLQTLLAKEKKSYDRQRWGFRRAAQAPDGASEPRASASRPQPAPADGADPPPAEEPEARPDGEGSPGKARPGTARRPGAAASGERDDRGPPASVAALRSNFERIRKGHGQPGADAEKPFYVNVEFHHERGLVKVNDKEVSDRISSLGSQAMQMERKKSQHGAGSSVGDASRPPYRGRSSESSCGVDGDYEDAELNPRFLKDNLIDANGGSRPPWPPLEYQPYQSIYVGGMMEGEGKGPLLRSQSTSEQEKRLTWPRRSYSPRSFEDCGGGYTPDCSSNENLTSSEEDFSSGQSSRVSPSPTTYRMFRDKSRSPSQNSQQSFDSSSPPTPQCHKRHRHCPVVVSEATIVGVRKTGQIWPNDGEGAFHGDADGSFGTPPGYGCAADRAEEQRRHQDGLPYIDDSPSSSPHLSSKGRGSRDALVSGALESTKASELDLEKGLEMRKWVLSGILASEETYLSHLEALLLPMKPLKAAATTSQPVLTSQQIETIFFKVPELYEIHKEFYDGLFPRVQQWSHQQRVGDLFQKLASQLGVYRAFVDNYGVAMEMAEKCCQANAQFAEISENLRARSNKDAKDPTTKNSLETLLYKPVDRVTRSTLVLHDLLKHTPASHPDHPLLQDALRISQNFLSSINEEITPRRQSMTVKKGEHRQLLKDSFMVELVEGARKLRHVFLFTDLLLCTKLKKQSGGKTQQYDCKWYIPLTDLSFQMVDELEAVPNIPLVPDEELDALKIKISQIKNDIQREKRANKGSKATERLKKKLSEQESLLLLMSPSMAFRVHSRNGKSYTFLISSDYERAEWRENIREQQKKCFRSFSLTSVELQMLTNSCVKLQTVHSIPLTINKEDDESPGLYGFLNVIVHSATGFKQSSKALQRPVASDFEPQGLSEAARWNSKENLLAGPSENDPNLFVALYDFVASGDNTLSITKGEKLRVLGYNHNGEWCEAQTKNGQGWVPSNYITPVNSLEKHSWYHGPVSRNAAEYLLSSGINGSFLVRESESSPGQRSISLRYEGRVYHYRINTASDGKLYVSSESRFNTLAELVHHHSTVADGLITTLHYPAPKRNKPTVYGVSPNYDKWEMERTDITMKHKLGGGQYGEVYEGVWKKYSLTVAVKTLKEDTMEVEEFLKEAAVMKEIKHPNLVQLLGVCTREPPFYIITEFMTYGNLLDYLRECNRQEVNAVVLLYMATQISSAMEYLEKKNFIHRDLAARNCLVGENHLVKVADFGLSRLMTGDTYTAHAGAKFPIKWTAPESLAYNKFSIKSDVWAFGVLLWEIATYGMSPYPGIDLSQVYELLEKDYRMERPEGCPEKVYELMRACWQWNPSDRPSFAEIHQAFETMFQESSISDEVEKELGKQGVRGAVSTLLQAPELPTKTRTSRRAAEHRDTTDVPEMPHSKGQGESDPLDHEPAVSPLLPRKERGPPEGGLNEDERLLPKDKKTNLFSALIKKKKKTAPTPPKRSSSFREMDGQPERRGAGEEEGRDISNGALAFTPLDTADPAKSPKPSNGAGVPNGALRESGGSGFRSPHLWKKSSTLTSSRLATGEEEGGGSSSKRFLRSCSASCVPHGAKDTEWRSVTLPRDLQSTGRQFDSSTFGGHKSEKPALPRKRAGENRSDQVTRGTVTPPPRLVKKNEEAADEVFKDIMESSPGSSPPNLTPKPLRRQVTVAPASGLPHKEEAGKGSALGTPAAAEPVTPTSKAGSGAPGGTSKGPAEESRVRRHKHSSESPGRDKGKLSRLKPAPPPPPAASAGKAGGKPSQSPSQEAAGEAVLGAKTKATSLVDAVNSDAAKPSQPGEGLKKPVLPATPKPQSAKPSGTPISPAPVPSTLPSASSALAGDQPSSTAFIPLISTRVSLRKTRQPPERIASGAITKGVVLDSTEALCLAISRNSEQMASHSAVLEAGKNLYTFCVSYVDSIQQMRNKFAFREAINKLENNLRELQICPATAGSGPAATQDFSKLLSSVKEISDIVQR
T3 sequence (P98170 252-356): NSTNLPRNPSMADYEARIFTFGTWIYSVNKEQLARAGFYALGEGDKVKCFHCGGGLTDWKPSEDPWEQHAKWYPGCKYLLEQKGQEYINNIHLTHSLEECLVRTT

For `CCN1CCN(Cc2ccc(NC(=O)c3cccc(-c4ccc5nc(NC(=O)COCCOCCOCCOc6cccc(C(=O)c7csc([C@@H]8CCCN8C(=O)[C@@H](NC(=O)[C@H](C)NC)C8CCCCC8)n7)c6)sc5n4)c3)cc2C(F)(F)F)CC1` [HG-IAP], the “knockdown activity against the BCR-ABL protein” value (from here on “knockdown activity”) on BCR-ABL protein is “weak”.

`COC(=O)C[C@H](NC(=O)[C@H](C)NC(=O)[C@@H](NC(=O)OCc1ccccc1)C(C)C)C(=O)CF` [zVAD-FMK, reference compound] (Cbz-Val-Ala-Asp(OMe)-CH2F): the “effect on caspase activation and PARP cleavage by DAS-IAP” value in assay [1] (K562, after DAS-IAP pulse and drug removal, 24 h) is listed as “abrogated”.

As for `Cc1nc(Nc2ncc(C(=O)Nc3c(C)cccc3Cl)s2)cc(N2CCN(C(=O)COCCOCCOCC(=O)N[C@H](C(=O)N3C[C@H](O)C[C@H]3C(=O)NCc3ccc(-c4scnc4C)cc3)C(C)(C)C)CC2)n1` [DAS-VHL], the “knockdown activity” value on BCR-ABL protein is “negligible activity”.

Consider `CCN1CCN(Cc2ccc(NC(=O)c3cccc(-c4ccc5nc(NC(=O)COCCOCCOCC(=O)N[C@H](C(=O)N6C[C@H](O)C[C@H]6C(=O)NCc6ccc(-c7scnc7C)cc6)C(C)(C)C)sc5n4)c3)cc2C(F)(F)F)CC1` [HG-VHL], for which the “knockdown activity” value on BCR-ABL protein is recorded as “effective protein knockdown activity”. In addition, the “suppression of K562 cell growth (comparison)” value in the assay with K562 cells [2] (WST assay) is “more potent suppression of the growth of K562 cells than HG-IAP and HG-CRBN”.

Turning to `Cc1nc(Nc2ncc(C(=O)Nc3c(C)cccc3Cl)s2)cc(N2CCN(CCO)CC2)n1` [Dasatinib, dasatinib, reference compound], the “phosphorylation of BCR-ABL, STAT5 and CrkL” value in assay [3] (K562, 50 times IC50 for 12 h (time 0)) was “inhibited”; in [3] (K562 cells, 6 h), “suppressed”. The “caspase 3 activation and PARP cleavage” value in assay [1] (K562, 50 times IC50 for 12 h, drug removal for 24 h) is given as “not”. The “growth of K562 cells after drug removal” value with K562 cells [4] is on record as “slightly delayed the growth”. Moreover, the “times more active than DAS-IAP to inhibit CML cell growth” value in the assay on K562 cells [2] turned out to be 100 times. The IC50 was 0.0793 ± 0.0037 nM in the assay with K562 cells [2] (Homo sapiens, WST assay, means ± SD (n = 3)) and 0.0448 ± 0.0005 nM in the assay with KU812 cells.

B1: FITC-labeled Smac peptide (FITC-Smac, AVPIAQK(5-FAM)-NH2) (peptide)
peptide: AVPIAQK(5FAM)-NH2
modifications: N-terminus assumed
SMILES: CC[C@H](C)[C@H](NC(=O)[C@@H]1CCCN1C(=O)[C@@H](NC(=O)[C@H](C)N)C(C)C)C(=O)N[C@@H](C)C(=O)N[C@@H](CCC(N)=O)C(=O)N[C@@H](CCCCNC(=O)c1ccc2c(c1)C(=O)OC21c2ccc(O)cc2Oc2cc(O)ccc21)C(N)=O
notes: N-terminal stretch of mature Smac (DIABLO); Fluorescent probe of the TR-FRET assay; source: synthetic peptide (synthesized in Scrum, Tokyo)
As for B1, the binding result in assay [5], in assay [6] and in assay [7] was “binds” each time.

Source of the values: article PMC6131351, “Pharmacological difference between degrader and inhibitor against oncogenic BCR-ABL kinase” (Scientific Reports, 2018).
